Target: T1, NS3-NS4A protease (Hepatitis C virus genotype 1a, UniProt P27958)
T1 construct: Recombinant E. coli or Baculovirus full-length NS3 was diluted to 3.33 μM with assay buffer; made in house; host or cells: E. coli or baculovirus (BV) system
Assay: NS3-NS4A protease assay (NS3 inhibition assay, RETS1 substrate), Section B
Assay type: biochemical
Settings: read-out: NS3-NS4A IC50
Procedure: NS3 complex formation with NS4A-2
Recombinant E. coli or Baculovirus full-length NS3 was diluted to 3.33 μM with assay buffer and the material transferred to an eppendorf tube and place in water bath in 4° C. refrigerator. The appropriate amount of NS4A-2 to 8.3 mM in assay buffer was added to equal the volume of NS3 in step 2.1.1 (conversion factor −3.8 mg/272 μL assay buffer). The material was transferred to an eppendorf tube and placed in a water bath in a 4° C. refrigerator.
After equilibration to 4° C., equal volumes of NS3 and NS4A-2 solutions were combined in an eppendorf tube, mixed gently with a manual pipettor, and the mixture incubated for 15 minutes in the 4° C. water bath. Final concentrations in the mixture were 1.67 μM NS3, 4.15 mM NS4A-2 (2485-fold molar excess NS4A-2).
After 15 minutes at 4° C., the NS3/NS4A-2 eppendorf tube was removed and placed in a room temperature water bath for 10 minutes. NS3/NS4A-2 was aliquoted at appropriate volumes and store at −80° C. (E. coli NS3 run at 2 nM in assay, aliquot at 25 μL. BV NS3 run at 3 nM in assay, aliquot at 30 μL.
Step 2.2.5. Sample compounds were dissolved to 10 mM in DMSO then diluted to 2.5 mM (1:4) in DMSO.
Step 2.2.6. The E. coli NS3/NS4A-2 was diluted to 4 nM NS3 (1:417.5 of 1.67 μM stock−18 μL 1.67 μM stock+7497 μL assay buffer).
The BV NS3/NS4A-2 was diluted to 6 nM NS3 (1:278.3 of 1.67 μM stock−24 μL 1.67 μM stock+6655 μL assay buffer).
Step 2.2.7. Using the manual multichannel pipettor, and being careful not to introduce bubbles into the plate, 50 μL assay buffer was added to wells A01-H01 of a black Costar 96-well polypropylene storage plate.
Step 2.2.8. Using the manual multichannel pipettor, and being careful not to introduce bubbles into the plate, 50 μL of diluted NS3/NS4A-2 from step 2.2.6 was added to wells A02-H12 of plate in step 2.2.7.
Step 2.2.9. Using the manual multichannel pipettor, and being careful not to introduce bubbles into the plate, 25 μL of the wells in drug dilution plate in step 2.2.5 were transferred to corresponding wells in assay plate in step 2.2.8. The tips on multichannel pipettor were changed for each row of compounds transferred.
Step 2.2.10. Using the manual multichannel pipettor, and being careful not to introduce bubbles into the plate, the wells from the assay plate in step 2.2.9 were mixed by aspirating and dispensing 35 μL of the 75 μL in each well five times. The tips on multichannel pipettor were changed for each row of wells mixed.
Step 2.2.11. The plate was covered with a polystyrene plate lid, and the plate from step 2.2.10 containing NS3 protease and sample compounds was pre-incubated 10 minutes at room temperature.
While the plate from step 2.2.11 was pre-incubating, the RETS1 substrate was diluted in a 15 mL polypropylene centrifuge tube. The RETS1 substrate was diluted to 8 μM (1:80.75 of 646 μM stock−65 μL 646 μM stock+5184 μL assay buffer).
After the plate in step 2.2.11 was done pre-incubating, and using the manual multichannel, 25 μL of substrate was added to all wells on the plate. The contents of the wells were quickly mixed, as in step 2.2.10, but mixing 65 μL of the 100 μL in the wells.
The plate was read in kinetic mode on the Molecular Devices SpectraMax Gemini XS plate reader. Reader settings: Read time: 30 minutes, Interval: 36 seconds, Reads: 51, Excitation λ: 335 nm, Emission λ: 495 nm, cutoff: 475 nm, Automix: off, Calibrate: once, PMT: high, Reads/well: 6, Vmax pts: 21 or 28/51 depending on length of linearity of reaction.
IC50s were determined using a four parameter curve fit equation, and converted to Ki's using the following Km's:
where Ki=IC50/(1+[S]/Km))

T1 sequence (P27958 1027-1657): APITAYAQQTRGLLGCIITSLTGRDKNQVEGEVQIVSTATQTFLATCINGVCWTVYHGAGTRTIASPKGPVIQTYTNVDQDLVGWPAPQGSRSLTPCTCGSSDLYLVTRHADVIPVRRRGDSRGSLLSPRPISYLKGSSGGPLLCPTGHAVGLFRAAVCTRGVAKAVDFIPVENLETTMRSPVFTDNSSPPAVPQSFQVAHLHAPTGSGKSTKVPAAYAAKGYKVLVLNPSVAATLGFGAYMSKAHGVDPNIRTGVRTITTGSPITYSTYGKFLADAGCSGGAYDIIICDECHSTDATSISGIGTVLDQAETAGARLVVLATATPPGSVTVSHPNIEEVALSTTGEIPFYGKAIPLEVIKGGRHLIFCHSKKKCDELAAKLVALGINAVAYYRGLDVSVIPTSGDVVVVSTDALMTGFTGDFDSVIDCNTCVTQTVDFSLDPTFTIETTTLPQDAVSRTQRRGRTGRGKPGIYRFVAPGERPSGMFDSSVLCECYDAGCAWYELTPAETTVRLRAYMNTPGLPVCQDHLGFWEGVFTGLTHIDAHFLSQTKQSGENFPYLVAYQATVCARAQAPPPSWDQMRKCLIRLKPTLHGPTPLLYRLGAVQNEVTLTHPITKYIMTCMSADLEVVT

Compound | IC50 [µM]
CC(C)(C)OC(=O)N[C@H]1CCCCC/C=C\[C@H]2C[C@]2(C(=O)O)NC(=O)[C@@H]2C[C@@H](OC(=O)N3CCc4ccccc4C3)CN2C1=O [AR00220122, (1S,4S,6R,14S,18R)-14-tert-Butoxycarbonylamino-18-(3,4-dihydro-1H-isoquinoline-2-carbonyloxy)-2,15-dioxo-3,16-diaza-tricyclo[14.3.0.0^4,6]nonadec-7-ene-4-carboxylic acid] | < 50
COc1cc2c(cc1OC)CN(C(=O)O[C@@H]1C[C@H]3C(=O)N[C@]4(C(=O)O)C[C@H]4/C=C\CCCCC[C@H](NC(=O)OC(C)(C)C)C(=O)N3C1)CC2 [AR00226824, (1S,4R,6S,14S,18R)-14-tert-Butoxycarbonylamino-18-(6,7-dimethoxy-3,4-dihydro-1H-isoquinoline-2-carbonyloxy)-2,15-dioxo-3,16-diaza-tricyclo[14.3.0.0^4,6]nonadec-7-ene-4-carboxylic acid] | < 10
CC(C)(C)OC(=O)N[C@H]1CCCCC/C=C\[C@@H]2C[C@@]2(C(=O)O)NC(=O)[C@@H]2C[C@@H](OC(=O)N3CCc4c([nH]c5ccccc45)C3)CN2C1=O [AR00226825, (1S,4R,6S,14S,18R)-14-tert-Butoxycarbonylamino-2,15-dioxo-18-(1,3,4,9-tetrahydro-b-carboline-2-carbonyloxy)-3,16-diaza-tricyclo[14.3.0.0^4,6]nonadec-7-ene-4-carboxylic acid] | < 10
O=C(N[C@H]1CCCCC/C=C\[C@@H]2C[C@@]2(C(=O)O)NC(=O)[C@@H]2C[C@@H](OC(=O)N3CCc4ccccc4C3)CN2C1=O)OC1CCCC1 [AR00247310, (1S,4R,6S,14S,18R)-14-Cyclopentyloxycarbonylamino-18-(3,4-dihydro-1H-isoquinoline-2-carbonyloxy)-2,15-dioxo-3,16-diaza-tricyclo[14.3.0.0^4,6]nonadec-7-ene-4-carboxylic acid] | < 1
CC(C)(C)C(=O)N[C@H]1CCCCC/C=C\[C@@H]2C[C@@]2(C(=O)O)NC(=O)[C@@H]2C[C@@H](OC(=O)N3CCc4ccccc4C3)CN2C1=O [AR00248687, (1S,4R,6S,14S,18R)-18-(3,4-Dihydro-1H-isoquinoline-2-carbonyloxy)-14-(2,2-dimethyl-propionylamino)-2,15-dioxo-3,16-diaza-tricyclo[14.3.0.0^4,6]nonadec-7-ene-4-carboxylic acid] | < 1
CC(C)C(=O)N[C@H]1CCCCC/C=C\[C@@H]2C[C@@]2(C(=O)O)NC(=O)[C@@H]2C[C@@H](OC(=O)N3CCc4ccccc4C3)CN2C1=O [AR00248688, (1S,4R,6S,14S,18R)-18-(3,4-Dihydro-1H-isoquinoline-2-carbonyloxy)-14-isobutyrylamino-2,15-dioxo-3,16-diaza-tricyclo[14.3.0.0^4,6]nonadec-7-ene-4-carboxylic acid] | < 10
O=C(N[C@H]1CCCCC/C=C\[C@@H]2C[C@@]2(C(=O)O)NC(=O)[C@@H]2C[C@@H](OC(=O)N3CCc4ccccc4C3)CN2C1=O)C1CCCC1 [AR00248689, (1S,4R,6S,14S,18R)-14-(Cyclopentanecarbonyl-amino)-18-(3,4-dihydro-1H-isoquinoline-2-carbonyloxy)-2,15-dioxo-3,16-diaza-tricyclo[14.3.0.0^4,6]nonadec-7-ene-4-carboxylic acid] | < 1
CC(C)(C)OC(=O)N[C@H]1CCCCC/C=C\[C@@H]2C[C@@]2(C(=O)O)NC(=O)[C@@H]2C[C@@H](NC(=O)N3CCc4ccccc4C3)CN2C1=O [AR00287262, (1S,4R,6S,14S,18R)-14-tert-butoxycarbonylamino-18-[(3,4-dihydro-1H-isoquinoline-2-carbonyl)-amino]-2,15-dioxo-3,16-diaza-tricyclo[14.3.0.0^4,6]nonadec-7-ene-4-carboxylic acid] | < 10

Reference: patent publication US7491794B2, “Macrocyclic compounds as inhibitors of viral replication” (Intermune, Inc., priority 2003, dated 2009)
